From patent US20230041563A1, “N-(1,3,4-OXADIAZOL-2-YL)ARYLCARBOXAMIDES OR SALTS THEREOF, PREPARATION METHODS, HERBICIDAL COMPOSITIONS AND USES THEREOF” (priority 2018, published 2023)

Tests used:
Assay in all cases: Weeding effect in post-emergence stage (greenhouse pot spray)
Assay type in all cases: in vivo
[1] = system: Echinochloa crusgalli
Outline: (§1)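 Greenhouse post-emergence test: compounds were sprayed at 500, 250, 125, 60 and 15 g a.i./ha onto plants 2 weeks after sowing, and fresh weight control rates were averaged from three replicates 3 weeks later.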

[2] = system: Abutilon theophrasti
Outline: as §1

[3] = system: Digitaria sanguinalis
Outline: as §1

[4] = system: Amaranthus retroflexus
Source text: (§2) The activity level criteria for plant damage (i.e., growth control rate) are as follows:
(§3) The above growth control rates are fresh weight control rates.
(§4) Experiment on weeding effect in post-emergence stage: monocotyledonous and dicotyledonous weed seeds (Descurainia sophia, Capsella bursa-pastoris, Abutilon theophrasti, Galium aparine, Stellaria media, Lithospermum arvense, rorippa indica, Alopecurus aequalis, Beckmannia syzigachne, Sclerochloa dura, Phleum paniculatum, Bromus japonicus, Aegilops tauschii, Phalaris arundinacea, Amaranthus retroflexus, Chenopodiaceae, Commelina communis, Sonchus arvensis, convolvulus arvensis, Cirsium setosum, Solanum nigrum, Acalypha australis, Digitaria sanguinalis, Echinochloa crusgalli, Setaria viridis, Setaria glauca, Leptochloa chinensis, Monochoria vaginalis, Sagittaria trifolia, Scirpus juncoides, Cyperus rotundus, Cyperus iria, Cyperus difformis, Fimbristylis, Portulaca oleracea, Xanthium sibiricum, Pharbitis nil) and major crop seeds (wheat, corn, rice, soybean, cotton, oilseed rape, millet, sorghum, potato, sesame, ricinus) were placed in plastic pots filled with soil, then covered with 0.5-2 cm of soil, allowed to grow in a good greenhouse environment. After 2 weeks of sowing, the test plants were treated in the 2 to 3 leaf stage. The tested compounds of the present invention were respectively dissolved in acetone, then added with Tween 80 and 1.5 liter/ha of emulsifiable concentrate of methyl oleate as synergist, diluted with a certain amount of water to obtain a solution with a certain concentration, and sprayed with a spray tower onto the plants. After the application, the plants were cultured for 3 weeks in the greenhouse, and then the experimental results of the weeding were counted. The doses of the used compounds were 500, 250, 125, 60, 15 g a.i./ha, and the averages were obtained by repeating for three times.

[5] = system: Stellaria media
Source text: as §2, §3, §4

Structure (SMILES)	Echinochloa crusgah (activity level) ([1]; Table 2, dose 500 g a.i./ha)	Abutilion theophrasti (activity level) ([2]; Table 2, dose 500 g a.i./ha)	Digitaria sanguinalis (activity level) ([3]; Table 2, dose 500 g a.i./ha)	Amaranthus retroflexus (activity level) ([4]; Table 2, dose 500 g a.i./ha)	Stellaria media (activity level) ([5]; Table 2, dose 500 g a.i./ha)	Echinochloa crusgah (activity level) ([1]; Table 2, dose 250 g a.i./ha)	Abutilion theophrasti (activity level) ([2]; Table 2, dose 250 g a.i./ha)	Digitaria sanguinalis (activity level) ([3]; Table 2, dose 250 g a.i./ha)	Amaranthus retroflexus (activity level) ([4]; Table 2, dose 250 g a.i./ha)	Stellaria media (activity level) ([5]; Table 2, dose 250 g a.i./ha)
Cc1nnc(NC(=O)c2ccc(C(F)(F)F)c([S+]([O-])CC(C)(C)C)c2F)o1 (stereo not drawn) [Compound 1-392]	5 (Level 5: growth control rate is above 85%)	5 (Level 5: growth control rate is above 85%)	5 (Level 5: growth control rate is above 85%)	5 (Level 5: growth control rate is above 85%)	5 (Level 5: growth control rate is above 85%)					
C=CCC[S+]([O-])c1c(C(F)(F)F)ccc(C(=O)Nc2nnc(C)o2)c1F (stereo not drawn) [Compound 1-397]	5 (Level 5: growth control rate is above 85%)	5 (Level 5: growth control rate is above 85%)	5 (Level 5: growth control rate is above 85%)	5 (Level 5: growth control rate is above 85%)	5 (Level 5: growth control rate is above 85%)					
CC=CC[S+]([O-])c1c(C(F)(F)F)ccc(C(=O)Nc2nnc(C)o2)c1F (stereo not drawn) [Compound 1-398]	5 (Level 5: growth control rate is above 85%)	5 (Level 5: growth control rate is above 85%)	5 (Level 5: growth control rate is above 85%)	5 (Level 5: growth control rate is above 85%)	5 (Level 5: growth control rate is above 85%)					
CNCC[S+]([O-])c1c(C(F)(F)F)ccc(C(=O)Nc2nnc(C)o2)c1F (stereo not drawn) [Compound 1-441]	5 (Level 5: growth control rate is above 85%)	5 (Level 5: growth control rate is above 85%)	5 (Level 5: growth control rate is above 85%)	5 (Level 5: growth control rate is above 85%)	5 (Level 5: growth control rate is above 85%)					
COC[S+]([O-])c1c(C(F)(F)F)ccc(C(=O)Nc2nnc(C)o2)c1F (stereo not drawn) [Compound 1-443]	5 (Level 5: growth control rate is above 85%)	5 (Level 5: growth control rate is above 85%)	5 (Level 5: growth control rate is above 85%)	5 (Level 5: growth control rate is above 85%)	5 (Level 5: growth control rate is above 85%)					
CCOCC[S+]([O-])c1c(C(F)(F)F)ccc(C(=O)Nc2nnc(C)o2)c1F (stereo not drawn) [Compound 1-446]						5 (Level 5: growth control rate is above 85%)	5 (Level 5: growth control rate is above 85%)	5 (Level 5: growth control rate is above 85%)	5 (Level 5: growth control rate is above 85%)	5 (Level 5: growth control rate is above 85%)
COC(C)C[S+]([O-])c1c(C(F)(F)F)ccc(C(=O)Nc2nnc(C)o2)c1F (stereo not drawn) [Compound 1-447]	5 (Level 5: growth control rate is above 85%)	5 (Level 5: growth control rate is above 85%)	5 (Level 5: growth control rate is above 85%)	5 (Level 5: growth control rate is above 85%)	5 (Level 5: growth control rate is above 85%)					
COCCC[S+]([O-])c1c(C(F)(F)F)ccc(C(=O)Nc2nnc(C)o2)c1F (stereo not drawn) [Compound 1-448]	5 (Level 5: growth control rate is above 85%)	5 (Level 5: growth control rate is above 85%)	5 (Level 5: growth control rate is above 85%)	5 (Level 5: growth control rate is above 85%)	5 (Level 5: growth control rate is above 85%)					
CCSc1c(C(F)(F)F)ccc(C(=O)Nc2nnc(CC)o2)c1F [Compound 2-4]	5 (Level 5: growth control rate is above 85%)	5 (Level 5: growth control rate is above 85%)	5 (Level 5: growth control rate is above 85%)	5 (Level 5: growth control rate is above 85%)	5 (Level 5: growth control rate is above 85%)					
